Measured values taken from publication PMC8113459, “Selective inhibition of cullin 3 neddylation through covalent targeting DCN1 protects mice from acetaminophen-induced liver toxicity” (Nature Communications, 2021).
“And” between values parts separate entries of the source, which are not always exact repeats. Equal values may be shown once.

Test system: mice
Experiment: 14-day toxicity study in mice
Format: in vivo, mouse
Settings: for whole animal: body weight of individual male mouse, in g (unit assumed)
Procedure: We evaluated DI-1859 for its potential toxicity in immunocompetent mice with daily, 50 mg/kg, intraperitoneal (IP) dosing for 14 consecutive days (Supplementary Table 3).
Supplementary Table 3. Overview Toxicity Study design DI-1859 study.
Group # # of Mice Drug Vol./ Test Article Treatment Diluent
(male/female) Route mouse dose Schedule

[1] = Clin Chem, individual male mouse, 50 mg/kg, 14 day, vehicle 20% PCP, listed as DI-1589, 50 mg/kg, in U/L (unit assumed)
[2] = Hemavet Values, individual male mouse, 50 mg/kg, 14 day, vehicle 20% PCP, listed as DI-1589, 50 mg/kg
[3] = mice, 50 mg/kg IP daily for 14 days
[4] = mice, 50 mg/kg IP qD(1-14), mean ± s.d., n=5

C=C(CN(C)C)C(=O)NC[C@@H](NC(=O)[C@H](Cc1nc2ccc(C(C)C)cc2s1)NC(=O)CC)C1CCCCC1 [DI-1859]
% wt change (average) (50 mg/kg IP qD(1-14), Treat Day 2): -3.1% | % wt change (average) (50 mg/kg IP qD(1-14), Treat Day 3): -3.0% | ave. wgt. (mouse body weight) (50 mg/kg IP qD(1-14), Treat Day 3, n=5): 25.5 gm | % wt change (average) (50 mg/kg IP qD(1-14), Treat Day 4): -3.1% | ave. wgt. (mouse body weight) (50 mg/kg IP qD(1-14), Treat Day 4, n=5): 25.5 gm | % wt change (average) (50 mg/kg IP qD(1-14), Treat Day 5): -0.9% | ave. wgt. (mouse body weight) (50 mg/kg IP qD(1-14), Treat Day 5, n=5): 26.0 gm | % wt change (average) (50 mg/kg IP qD(1-14), Treat Day 6): -1.3% | ave. wgt. (mouse body weight) (50 mg/kg IP qD(1-14), Treat Day 6, n=5): 25.9 gm | % wt change (average) (50 mg/kg IP qD(1-14), Treat Day 7): -1.6% | ave. wgt. (mouse body weight) (50 mg/kg IP qD(1-14), Treat Day 7, n=5): 25.8 gm | % wt change (average) (50 mg/kg IP qD(1-14), Treat Day 8): -2.1% | ave. wgt. (mouse body weight) (50 mg/kg IP qD(1-14), Treat Day 8, n=5): 25.7 gm | % wt change (average) (50 mg/kg IP qD(1-14), Treat Day 9): -1.9% | ave. wgt. (mouse body weight) (50 mg/kg IP qD(1-14), Treat Day 9, n=5): 25.8 gm | % wt change (average) (50 mg/kg IP qD(1-14), Treat Day 10): -0.8% | ave. wgt. (mouse body weight) (50 mg/kg IP qD(1-14), Treat Day 10, n=5): 26.0 gm | % wt change (average) (50 mg/kg IP qD(1-14), Treat Day 11): -3.6% | ave. wgt. (mouse body weight) (50 mg/kg IP qD(1-14), Treat Day 11, n=5): 25.3 gm | % wt change (average) (50 mg/kg IP qD(1-14), Treat Day 12): -2.5% | ave. wgt. (mouse body weight) (50 mg/kg IP qD(1-14), Treat Day 12, n=5): 25.6 gm | % wt change (average) (50 mg/kg IP qD(1-14), Treat Day 13): -2.7% | ave. wgt. (mouse body weight) (50 mg/kg IP qD(1-14), Treat Day 13, n=5): 25.6 gm | % wt change (average) (50 mg/kg IP qD(1-14), Treat Day 14): -4.9% | ave. wgt. (mouse body weight) (50 mg/kg IP qD(1-14), Treat Day 14, n=5): 25.0 gm | ALT [1]: 34 and 26 and 24 and 31 | AST [1]: 57 and 46 and 61 and 55 and 35 | PDW (Hemavet Values, individual male mouse, 50 mg/kg, 14 day, vehicle 20% PCP): 0% | BA# [2]: 0.01 K/uL and 0.09 K/uL and 0.05 K/uL and 0.13 K/uL | BA% [2]: 0.11% and 0.74% and 1.42% and 0.22% and 1.34% | EO# [2]: 0.05 K/uL and 0.22 K/uL and 0.08 K/uL and 0.02 K/uL and 0.52 K/uL | EO% [2]: 0.65% and 1.86% and 2.37% and 0.68% and 5.39% | HB [2]: 12.9 g/dL and 12.5 g/dL and 10.2 g/dL and 11.4 g/dL and 11.5 g/dL | HCT [2]: 37.7% and 38.6% and 31.1% and 36.4% and 34.1% | LY# [2]: 5.23 K/uL and 7.93 K/uL and 2.4 K/uL and 1.63 K/uL and 5.65 K/uL | LY% [2]: 69.39% and 68.59% and 72.26% and 71.36% and 58.57% | MCH [2]: 14.5 pg and 13.7 pg and 14.3 pg | MCHC [2]: 34.2 g/dL and 32.4 g/dL and 32.8 g/dL and 31.3 g/dL and 33.7 g/dL | MCV [2]: 42.5 fL and 42.4 fL and 41.9 fL and 43.7 fL | MO# [2]: 0.42 K/uL and 0.63 K/uL and 0.21 K/uL and 0.22 K/uL | MO% [2]: 5.58% and 5.49% and 6.31% and 9.5% and 6.52% | MPV [2]: 4.9 fL and 4.7 fL and 5.2 fL and 5.7 fL and 4.8 fL | NE# [2]: 1.83 K/uL and 2.69 K/uL and 0.59 K/uL and 0.42 K/uL and 2.72 K/uL | NE% [2]: 24.26% and 23.31% and 17.63% and 18.24% and 28.19% | PLT [2]: 900 K/uL and 866 K/uL and 228 K/uL and 177 K/uL and 757 K/uL | RBC [2]: 8.88 M/uL and 9.11 M/uL and 7.43 M/uL and 8.33 M/uL and 8.03 M/uL | RDW [2]: 17.1% and 16.5% and 17.2% and 17.7% | WBC [2]: 7.54 K/uL and 11.56 K/uL and 3.32 K/uL and 2.28 K/uL and 9.64 K/uL | whole animal (50 mg/kg, 14 day, vehicle 20% PCP): 24.600 | whole animal (50 mg/kg, 14 day, vehicle 20% PCP, listed as DI-1589, 50 mg/kg): 25.300 and 25.200 and 26.400 and 27.400 | alterations in hematologic parameters [3]: no meaningful alterations | changes in body weights or organ weights [3]: no changes | tolerability [3]: well tolerated | Absolute organ weight, Adrenal glands (paired) [4]: 0.006 ± 0.002 g | Absolute organ weight, Brain [4]: 0.454 ± 0.009 g | Absolute organ weight, Epididymis (paired) [4]: 0.089 ± 0.011 g | Absolute organ weight, Heart [4]: 0.117 ± 0.009 g | Absolute organ weight, L kidney [4]: 0.182 ± 0.013 g | Absolute organ weight, Liver [4]: 1.596 ± 0.098 g | Absolute organ weight, R kidney [4]: 0.200 ± 0.007 g | Absolute organ weight, Spleen [4]: 0.073 ± 0.013 g | Absolute organ weight, Testes (paired) [4]: 0.222 ± 0.017 g | Absolute organ weight, Thymus [4]: 0.040 ± 0.027 g | Body weights [4]: 25.78 ± 1.11 g | Hematocrit [4]: 35.58 ± 3.02% | Hemoglobin [4]: 11.70 ± 1.06 g/dL | MCH [4]: 13.98 ± 0.39 pg | MCHC [4]: 32.88 ± 1.13 g/dL | MCV [4]: 42.60 ± 0.66 fL | MPV [4]: 5.06 ± 0.40 fL | Platelets [4]: 585.6 ± 354.1 10e3/uL | RBC [4]: 8.36 ± 0.67 10e6/ul | RDW [4]: 17.12 ± 0.43%
